Experimental data published in PMC4457633 (Bioorganic & medicinal chemistry letters, 2015).
Like-named read-outs stand apart in the source and are kept apart here.

Experiments:
[1] = molecular target: T1, VMAT-2 (Rattus norvegicus, UniProt Q01827); assay: [3H]DA uptake at VMAT-2, isolated rat synaptic vesicle preparations; assay type: biochemical; details: for fold more potent inhibiting [3H]DA uptake at VMAT-2 compared to 16: compared to N-2,3-dihydroxypropyl derivative 16
[2] = qualitative; ref [15]; cited from earlier work
[3] = molecular target: T1, VMAT-2; details: read-out: [3H]DTBZ Binding Ki; mean ± SEM; rat brain synaptic vesicles; ref [15]; cited from earlier work
[4] = molecular target: T1, VMAT-2; details: read-out: [3H]DA uptake Ki; mean ± SEM; rat synaptic vesicles; ref [15]; cited from earlier work

T1 sequence (Q01827 whole entry): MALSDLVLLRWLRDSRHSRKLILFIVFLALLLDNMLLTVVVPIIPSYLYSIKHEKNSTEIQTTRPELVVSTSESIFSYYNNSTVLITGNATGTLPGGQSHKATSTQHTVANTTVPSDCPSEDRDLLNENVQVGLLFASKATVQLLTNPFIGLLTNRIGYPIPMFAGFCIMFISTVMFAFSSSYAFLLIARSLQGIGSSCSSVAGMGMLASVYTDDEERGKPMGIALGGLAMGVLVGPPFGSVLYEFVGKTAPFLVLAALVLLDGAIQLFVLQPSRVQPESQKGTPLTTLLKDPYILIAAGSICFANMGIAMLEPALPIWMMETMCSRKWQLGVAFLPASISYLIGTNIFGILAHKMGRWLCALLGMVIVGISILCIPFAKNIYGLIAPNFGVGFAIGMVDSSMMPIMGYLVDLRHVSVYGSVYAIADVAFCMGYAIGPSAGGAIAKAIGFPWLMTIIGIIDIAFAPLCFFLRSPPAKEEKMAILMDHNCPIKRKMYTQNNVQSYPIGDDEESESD

fold more potent inhibiting [3H]DA uptake at VMAT-2 compared to 16 [1] | Compound | water solubility [2] | further results
about 6 fold | c1ccc2nc(CC[C@H]3CCC[C@@H](CCc4ccc5ccccc5n4)N3)ccc2c1 [Compound 13] | – | –
about 6 fold | c1ccc2c(CC[C@H]3CCC[C@@H](CCc4ccnc5ccccc45)N3)ccnc2c1 [Compound 14] | – | –
– | OC[C@H](O)CN1[C@@H](CCc2ccc3ccccc3n2)CCC[C@H]1CCc1ccc2ccccc2n1 [Compound 16] | – | fold lower inhibitory potency than GZ-793A in vesicular [3H]DA uptake assay ([1]; compared to GZ-793A (Ki = […] nM)): 8 fold
– | CN1[C@@H](CCc2ccccc2)CCC[C@H]1CCc1ccccc1 [Lobelane] | less than optimal water-solubility | –
– | c1ccc(CC[C@H]2CCC[C@@H](CCc3ccccc3)N2)cc1 [Norlobelane] | less than optimal water-solubility | Ki [3]: 2310 ± 190 nM; Ki [4]: 43 ± 2 nM
– | CN1[C@@H](CCc2ccnc3ccccc23)CCC[C@H]1CCc1ccnc2ccccc12 [Quinlobelane] | improved water solubility over lobelane and norlobelane | –

Compound | fold more potent inhibiting [3H]DA uptake at VMAT-2 compared to 16 [1] | water solubility [2] | further results
c1cnc2ccc(CC[C@H]3CCC[C@@H](CCc4ccc5ncccc5c4)N3)cc2c1 [Compound 15] | about 6 fold | – | –
